In patent publication US20110318277A1, “TACROLIMUS COMPOSITIONS FOR AEROSOL ADMINISTRATION” (APT Pharmaceuticals, Inc. University of Maryland, Baltimore, priority 2010, published 2011):

Columns and labels:
[1] = Chemical stability of tacrolimus in ethanol as a function of concentration (HPLC); type: physicochemical; settings: 55 °C, 26 days
Experimental: The chemical stability of tacrolimus in ethanol at different concentrations ranging from 100 to 400 mg/ml when stored at 55° C. was investigated.
Samples were analyzed using reverse phase HPLC with an acetonitrile-water gradient and UV detection. Samples were prepared in a non-aqueous medium, i.e., acetonitrile, to limit the interconversion of tautomers and to promote stability. Column temperature was set at 60° C. to further promote equilibrium between the cis-trans isomers. The gradient was set at 5% acetronitrile with a run time of 20 minutes. Acetic acid (0.002%) was added to mobile phase A (water). A solution of tacrolimus in 1:1 acetonitrile-water was incubated at 55° C. for 45 minutes to obtain an equilibrium mixture of the 3 tautomers so that retention times of each tautomer could be obtained.

[2] = Chemical stability of tacrolimus in ethanol as a function of temperature; type: physicochemical; settings: 200 mg/ml in ethanol, around day 30
Experimental: The degradant levels contained in solutions of tacrolimus dissolved in ethanol at a fixed concentration of 200 mg/ml were determined over time as a function of temperature. Samples were stored at the following temperatures: 35° C., 45° C., and 55° C.

[3] = Aerosol exposure study of tacrolimus in rats, blood and lung pharmacokinetics; type: in vivo, male Sprague-dawley rats; settings: rat; for AUClast / Tmax: lung; for Cmax: 30 min aerosol exposure
Experimental: A total of 54 male Sprague-dawley rats of approximately 250 g body weight were exposed to aerosols of tacrolimus (in a propylene-glycol:ethanol mixture) generated by jet-nebulizer for 30 minutes. […] Estimated deposited doses for the 30 minute exposure (assuming 10% deposition efficiency) were 0.072 and 0.256 mg/kg for the “low” and “high” dose groups. Lung and blood samples were obtained for groups of animals (n=3/time point).

[4] = Particle size of jet-nebulized tacrolimus aerosol; type: physicochemical; settings: jet-nebulizer
[5] = Solubility of tacrolimus in ethanol and hydrofluoroalkanes; type: physicochemical
[6] = Aerosol exposure study of tacrolimus in rats, blood and lung pharmacokinetics; type: in vivo, male Sprague-dawley rats; settings: rat
[7] = test system: calcineurin; settings: as a calcineurin inhibitor; Kino et al. 1987; cited from earlier work
[8] = male, Sprague-Dawley, inhaled or intranasal, blood, High Inhalation 0.256 mg/kg
[9] = male, Sprague-Dawley, inhaled or intranasal, blood, Low Inhalation 0.072 mg/kg
[10] = male, Sprague-Dawley, 0.4 mg/kg, blood, IV Bolus 0.400 mg/kg
[11] = male, Sprague-Dawley, 0.4 mg/kg, lung, IV Bolus 0.400 mg/kg

C=CC[C@@H]1/C=C(\C)C[C@H](C)C[C@H](OC)[C@H]2O[C@@](O)(C(=O)C(=O)N3CCCC[C@H]3C(=O)O[C@H](/C(C)=C/[C@@H]3CC[C@@H](O)[C@H](OC)C3)[C@H](C)[C@@H](O)CC1=O)[C@H](C)C[C@@H]2OC [tacrolimus, 17-allyl-1,14-dihydroxy-12-[2-(4-hydroxy-3-methoxycyclohexyl)-1-methylvinyl]-23,25-dimethyoxy-13,19,21,27-tetramethyl-11,28-dioxa-4-azatricyclo-[22.3.1.0^4,9]octacos-18-ene-2,3,10,16-tetraone]
degradation of tacrolimus ([1]; 100 mg/ml in ethanol): approximately 7% | degradation of tacrolimus ([1]; 400 mg/ml in ethanol): less than 1% | impurity level ([2]; stored at 35 °C): about 3% | impurity level ([2]; stored at 55 °C): about 11% | AUClast ([3]; High Inhalation 0.256 mg/kg): 22750 ng·h/g | AUClast ([3]; Low Inhalation 0.072 mg/kg): 19722 ng·h/g | Cmax [3, 8]: 149 ng/mL | AUC(0-t) [3, 8]: 194 ng·h/mL | Cmax [3, 9]: 40 ng/mL | AUC(0-t) [3, 9]: 121 ng·h/mL | half-life [3, 9]: 179 min | Tmax ([3]; male, Sprague-Dawley, inhaled or intranasal, High Inhalation 0.256 mg/kg): 4.98 min | Tmax ([3]; male, Sprague-Dawley, inhaled or intranasal, Low Inhalation 0.072 mg/kg): 4.98 min | MMAD (GSD) ([4]; 50 mg/ml solution in propylene-glycol:ethanol mixture): 2.53 (1.71) μm | MMAD (GSD) ([4]; 150 mg/ml solution in propylene-glycol:ethanol mixture): 2.56 (1.73) μm | solubility in ethanol ([5]; ethanol): readily soluble | solubility in hydrofluoroalkanes ([5]; hydrofluoroalkanes): essentially insoluble | AUClast ([6]; lung, IV Bolus 0.400 mg/kg): 334095 ng·h/g | AUC(0-t) [6, 10]: 179 ng·h/mL | Cmax [6, 10]: 78.2 ng/mL | Tmax [6, 10]: 4.98 min | half-life [6, 10]: 114 min | Cmax [6, 11]: 19100 ng/g | Tmax [6, 11]: 4.98 min | half-life [6, 11]: 1470 min | Tmax [6, 8]: 4.98 min | half-life [6, 8]: 104 min | Tmax [6, 9]: 4.98 min | Cmax ([6]; male, Sprague-Dawley, inhaled or intranasal, lung, High Inhalation 0.256 mg/kg, 30 min aerosol exposure): 18100 ng/g | half-life ([6]; male, Sprague-Dawley, inhaled or intranasal, lung, High Inhalation 0.256 mg/kg): 1400 min | Cmax ([6]; male, Sprague-Dawley, inhaled or intranasal, lung, Low Inhalation 0.072 mg/kg, 30 min aerosol exposure): 9960 ng/g | half-life ([6]; male, Sprague-Dawley, inhaled or intranasal, lung, Low Inhalation 0.072 mg/kg): 548 min | potency relative to cyclosporine [7]: up to one hundred times more potent
